Test results from patent US8138170B2, “Immunosuppressive Ningalin compounds” (Memorial Sloan-Kettering Cancer Center, priority 2004, dated 2012).
Several values for one entry are separate records, joined by “and”; a condition that tells them apart may be missing. Equal entries are not always repeated.

Key:
[1] = Cytotoxicity measured by cell proliferation inhibition; format: cell-based
human lymphocytes = assay: Inhibition of PHA-stimulated lymphocyte proliferation ([3H]thymidine incorporation); format: cell-based; conditions: PHA-stimulated human lymphocyte proliferation; read-out: Immunosuppressive Effect (IC50 in μM) [B]
Text: Phytohemagglutinin (phytostigma or “PHA”) induces proliferation of human lymphocytes.

[2] = system: carrageenan-induced paw edema; assay: Carrageenan-induced paw edema; format: in vivo, B6D2F1 mice; conditions: for Pedis Area: individual mice 1-4; for Pedis Area, Mean: mean of 4 mice
Experimental: Carrageene (1%, 30 μl) was injected i.m. into the pedis of B6D2F1 mice (4 mice/group) to induced edemic inflammation at 0 hours. N3, N5 (i.p. injection) or oral administration of aspirin 500 mg/kg, or topical application of hydrocortisone cream (1%) or Lidex cream (0.05%) to the pedis skins were given at −1, 6, 12 and 24 hours. The control mice received dimethylsulfoxide (the vehicle of ningalins). The pedis areas (in mm^2) were measured at 0, 3, 6, 12, 24, 36 and 48 hours.

C57BL/6 heart allografts = assay: Heterotopic heart transplantation in mice; format: in vivo, Balb/c mice
Experimental: (§1) Heterotopic heart transplantation was performed in rats and mice. In brief, heart transplantation was performed by previously described modified method. Hearts harvested from donors were perfused with chilled saline and immediately transplanted to recipients under full anesthesia. Suture 10-0 in rats and 12-0 in mice (Ethicon; Somerville, N.J.) was used to perform anastomosis of aorta to aorta and pulmonary artery to vena cava. Heartbeat was evaluated daily and the day of complete cessation was considered rejection. Animals that died within three days after transplantation were excluded from the analysis (less than 5%).
Mice were also transplanted with heart allografts. In particular, untreated Balb/c (H-2^d) recipients rejected C57BL/6 (H-2^b) heart allografts at a MST of 7.8±0.84 days (n=5). Treatment with 40 mg/kg N5, QDx7, extended heart allograft survival to 13.33±2.52 days, which increased life span 71% (n=3; p<0.03).
Mice heart allografts were treated with 20 mg/kg of N3, QDx7, i.p. In particular, untreated Balb/c (H-2^d) recipients rejected C57BL/6 ([…]) heart allografts at a MST of […] days (n=5). Treatment with 20 mg/kg of N3 (i.e., one-half of dose of N5) extended heart allograft survival to 18.75±3.86 days (n=4; p<0.0005), an increase in lifespan of 140%.

LEW kidney allografts = assay: Orthotopic kidney transplantation in rats; format: in vivo, ACI rats
Experimental: Orthotopic kidney transplantation was performed in rats. In particular, the left kidney of donor was perfused through the aorta with heparinized saline (4° C.) and then harvested after the renal artery, renal vein, and ureter were cut off. End-to-end anastomosis of donor and recipient renal arteries and veins were performed using 10-0 nylon suture (Ethicon; Somerville, N.J.). The recipients' native kidneys were removed on the day of transplantation. Animals that died within three days after transplantation were excluded from the analysis (less than 5%).
The effect of N5 (administered in DMSO, 20 mg/kg, i.p. QDx7) on kidney allograft survival was examined. Although untreated ACI recipients acutely rejected LEW kidney allografts at 8.8±0.75 days, a 7-day i.p. daily treatment extended survivals to 26.50±2.12 days, which increased lifespan 200% (n=2; p<0.03).

[3] = system: Lewis (LEW) heart allografts; assay: Heterotopic heart transplantation in rats; format: in vivo, Rat ACI recipients
Experimental: as §1
Rat ACI (RT1*) recipients of Lewis (LEW; RT1^1) heart allografts were untreated or were treated for 7 days by daily (QDx7) i.p. injections with 20 mg/kg N5. Untreated recipients rejected heart allografts in a mean survival time (MST) of 8.40±0.55 (n=5).

For `COc1ccc(CCn2c(C(=O)N(C)C)c(-c3ccc(OC)c(OC)c3)c3c4cc(OC)c(OC)cc4oc(=O)c32)cc1OC` [Ningalin N5, 1-(3,4-Dimethoxy-phenyl)-3-[2-(3,4-dimethoxy-phenyl)-ethyl]-7,8-dimethoxy-4-oxo-3,4-dihydro-5-oxa-3-aza-cyclopenta[α]naphthalene-2-carboxylic acid dimethylamide], the IC50 [1] was 17.1 ± 4.6 µM, the IC50 (human lymphocytes) was 0.17 ± 0.01 µM and the “Pedis Area” value ([2]; 0 hr, aspirin 500 mg/kg oral, N3 100 mg/kg i.p., N5 50 mg/kg i.p., hydrocortisone cream 1%, Lidex cream 0.05% topical, given at −1, 6, 12, 24 hours) was 100 mm^2. The “Pedis Area, Mean” value ([2]; 0 hr, doses as E35) was 100 mm^2, the “Pedis Area” value ([2]; 3 hr, doses as E35) was 137.1 mm^2 and 139.2 mm^2 and 143.9 mm^2 and 132 mm^2 and the “Pedis Area, Mean” value ([2]; 3 hr, doses as E35) was 138.1 mm^2. The “Pedis Area” value ([2]; 6 hr, doses as E35) was 138.1 mm^2 and 144.3 mm^2 and 146.9 mm^2 and 145.4 mm^2, the “Pedis Area, Mean” value ([2]; 6 hr, doses as E35) was 143.7 mm^2 and the “Pedis Area” value ([2]; 12 hr, doses as E35) was 125.7 mm^2 and 124.7 mm^2 and 140.8 mm^2 and 141.2 mm^2. For the same compound, the “Pedis Area, Mean” value ([2]; 12 hr, doses as E35) was 133.1 mm^2, the “Pedis Area” value ([2]; 24 hr, doses as E35) was 125.7 mm^2 and 161.6 mm^2 and 128.6 mm^2 and 142.3 mm^2 and the “Pedis Area, Mean” value ([2]; 24 hr, doses as E35) was 129.6 mm^2. The “Pedis Area” value ([2]; 36 hr, doses as E35) was 120 mm^2 and 118.6 mm^2 and 127.6 mm^2 and 142.3 mm^2, the “Pedis Area, Mean” value ([2]; 36 hr, doses as E35) was 127.1 mm^2 and the “Pedis Area” value ([2]; 48 hr, doses as E35) was 120 mm^2 and 117.5 mm^2 and 130.6 mm^2 and 142.3 mm^2. The “Pedis Area, Mean” value ([2]; 48 hr, doses as E35) was 127.6 mm^2, the “anti-inflammatory effect (FIG. 3)” value ([2]; N5 50 mg/kg i.p., N3 100 mg/kg i.p., all drugs: at 12-48 hours) was “produced an anti-inflammatory effect” and the “MST ± SD days (heart allograft survival)” value (C57BL/6 heart allografts; B6 heart to Balb/c, N5 40 mg/kg QDx7, 40 mg/kg) was 13.33±2.52 days and 13.35 ± 2.52 days. For the same compound, the increased life span (C57BL/6 heart allografts; heart allograft, N5 40 mg/kg QDx7, vs untreated) was 71%, the “Survival days (individual animals)” value (C57BL/6 heart allografts; heart, N5 40 mg/kg, 40 mg/kg) was 11 days and 13 days and 16 days and the “MST ± SD days (kidney allograft survival)” value (LEW kidney allografts; ACI recipients of LEW kidney, N5 in DMSO 20 mg/kg i.p. QDx7) was 26.50±2.12 days. The increased life span (LEW kidney allografts; kidney allograft, N5 20 mg/kg i.p. QDx7, vs untreated) was 200%, the “Survival days (individual animals)” value (LEW kidney allografts; kidney, N5 20 mg/kg, 20 mg/kg) was 26 days and 28 days and the “MST ± SD days (heart allograft survival)” value ([3]; ACI recipients of LEW heart, N5 20 mg/kg i.p. QDx7, 20 mg/kg) was 18.67±2.52 days and 18.67 ± 2.5 days. For the same compound, the increased life span ([3]; heart allograft, N5 20 mg/kg i.p. QDx7, vs untreated) was 122% and the “Survival days (individual animals)” value ([3]; heart, N5 20 mg/kg, 20 mg/kg) was 18 days and 19 days and 21 days.
